Data: patent US9850283B2, “Macrocyclic inhibitors of the PD-1/PD-L1 and CD80(B7-1)/PD-L1 protein/protein interactions” (BRISTOL-MYERS SQUIBB COMPANY, priority 2013, dated 2017)
Where two headings read alike, the source gives them in different places. Positions of bridges follow the written chain, without caps; N, C: chain ends. Non-standard residues stand in square brackets, D forms with d. Residues, ends and D or L forms follow the SMILES beside them. ξ: configuration not given here. Bta = N[C@@H](Cc1csc2ccccc12)C(=O)O; Hyp = O=C(O)[C@@H]1C[C@@H](O)CN1; NMeNle = CCCC[C@H](NC)C(=O)O; NMeA = CN[C@@H](C)C(=O)O; Dab = NCC[C@H](N)C(=O)O; Dap = NC[C@H](N)C(=O)O; ξC = NC(CS)C(=O)O

How the values were obtained:
Human PD-L1/PD-1 = target: T1, Human PD-L1/PD-1 (Homo sapiens, UniProt Q9NZQ7); assay: HTRF PD-1-Ig/PD-L1-His binding assay (human PD-L1); conditions: cluster symbol; read-out: HTRF IC50 cluster
T1 construct: made in house; host or cells: HEK293T
T1 sequence (Q9NZQ7 with tags, fused parts or gaps): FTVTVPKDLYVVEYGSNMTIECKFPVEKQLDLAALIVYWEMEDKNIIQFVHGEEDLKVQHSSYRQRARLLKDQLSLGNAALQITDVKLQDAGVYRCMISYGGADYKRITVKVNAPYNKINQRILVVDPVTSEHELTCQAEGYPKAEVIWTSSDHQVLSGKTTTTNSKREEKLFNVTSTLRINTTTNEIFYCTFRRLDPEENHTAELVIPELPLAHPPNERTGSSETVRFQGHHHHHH
How it was run: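 HTRF read-out: Eu cryptate anti-Ig mAb 1 nM final, APC anti-His mAb 20 nM final, added over the binding reaction. Proteins were PD-1-Ig and PD-L1-His ectodomain fusions. Buffer was dPBS, 0.1% BSA, 0.05% Tween-20.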

[1] = target: T2, LK35.2-hPD-L1 cells / PE-labeled PD-1-Ig (Homo sapiens, UniProt Q9NZQ7); assay: LK35.2-hPD-L1 cell binding high-content screening assay; format: cell-based; conditions: cluster symbol, read-out: CBA IC50 cluster
T2 construct: expressed in transfected cells; host or cells: LK35.2 mouse B cell line
T2 sequence (Q9NZQ7 19-290): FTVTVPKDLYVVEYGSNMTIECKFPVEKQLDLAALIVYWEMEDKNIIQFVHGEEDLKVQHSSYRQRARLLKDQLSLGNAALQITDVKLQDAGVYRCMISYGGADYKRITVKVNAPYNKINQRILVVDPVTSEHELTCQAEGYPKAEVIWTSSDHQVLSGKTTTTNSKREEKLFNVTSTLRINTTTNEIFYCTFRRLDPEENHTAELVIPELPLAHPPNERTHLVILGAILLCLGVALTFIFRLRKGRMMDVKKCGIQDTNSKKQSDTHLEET
How it was run: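 Using overnight-cultured LK35.2-hPD-L1 mouse B cells, compound was co-incubated with phycoerythrin-tagged human PD-1-Ig (final 1 nM) at 37 °C for one hour. Unbound label was removed by triple dPBS washing prior to high-content image acquisition and analysis.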

[2] = cell binding assay, cell line not given
[3] = cell line of CBA not given (LK35.2-hPD-L1 or 293T-hPD-L1)

IC50 (Human PD-L1/PD-1) [nM]	IC50 [1, 2] [nM]	IC50 [1, 3] [nM]	Structure (SMILES)
0.385 to 6.74	0.158 to 4.71	–	CCCC[C@H]1C(=O)N(C)[C@@H](CCCC)C(=O)N[C@@H](CC(C)C)C(=O)N[C@H](C(=O)NCC(N)=O)CSCC(=O)N[C@@H](Cc2ccc(O)cc2)C(=O)N(C)[C@@H](C)C(=O)N[C@@H](CC(=O)O)C(=O)N2CCC[C@H]2C(=O)N[C@@H](Cc2cnc[nH]2)C(=O)N[C@@H](CCC(=O)O)C(=O)N2C[C@H](O)C[C@H]2C(=O)N[C@@H](Cc2c[nH]c3ccccc23)C(=O)N[C@@H](CO)C(=O)N[C@@H](Cc2c[nH]c3ccccc23)C(=O)N1C [Example 6026] ({CH2CO}-Y[NMeA]DPHE[Hyp]WSW[NMeNle][NMeNle]LCG-NH2; thioether N-14)
> 30.5	> 74.3	–	CCCC[C@H]1C(=O)N(C)CC(=O)N[C@@H](CC(=O)O)C(=O)N[C@@H](Cc2ccc(O)cc2)C(=O)N(C)[C@@H](Cc2ccccc2)C(=O)N[C@@H](Cc2ccc(O)cc2)C(=O)N(C)CC(=O)N[C@@H](Cc2c[nH]c3ccccc23)C(=O)N[C@@H](Cc2ccc(O)cc2)C(=O)N[C@@H](CC(C)C)C(=O)N[C@H](C(=O)NCC(N)=O)CSCC(=O)N[C@@H](Cc2ccccc2)C(=O)N(C)[C@@H](Cc2ccccc2)C(=O)N1C [Example 3503] (HELM PEPTIDE1{[O=C(C[*:3])[*:2]].F.[meF].[CCCC[C@@H](C(=O)[*:2])N(C)[*:1]].[Sar].D.Y.[meF].Y.[Sar].W.Y.L.C.G.[am]}$PEPTIDE1,PEPTIDE1,1:R3-14:R3$$$V2.0)
> 30.5	–	> 74.3	CCCC[C@H]1C(=O)N(C)CC(=O)N[C@@H](CC(=O)O)C(=O)N[C@@H](C(C)C)C(=O)N(C)[C@@H](Cc2ccccc2)C(=O)N2CCC[C@H]2C(=O)N2CCC[C@@H]2C(=O)N[C@@H](Cc2c[nH]c3ccccc23)C(=O)N[C@@H](Cc2ccc(O)cc2)C(=O)N[C@@H](CC(C)C)C(=O)N[C@H](C(=O)NCC(N)=O)CSCC(=O)N[C@@H](Cc2ccccc2)C(=O)N(C)[C@@H](Cc2ccccc2)C(=O)N1C [Example 3176] (HELM PEPTIDE1{[O=C(C[*:3])[*:2]].F.[meF].[CCCC[C@@H](C(=O)[*:2])N(C)[*:1]].[Sar].D.V.[meF].P.[dP].W.Y.L.C.G.[am]}$PEPTIDE1,PEPTIDE1,1:R3-14:R3$$$V2.0)

Continued, compound first:

Structure (SMILES)	IC50 (Human PD-L1/PD-1) [nM]	IC50 [1, 2] [nM]	IC50 [1, 3] [nM]
CCCC[C@H]1C(=O)N(C)[C@@H](CCOC)C(=O)N[C@@H](CCCNC(=N)N)C(=O)NC(C(=O)NCC(N)=O)CSCC(=O)N[C@@H](Cc2ccc(O)cc2)C(=O)N(C)[C@@H](C)C(=O)N[C@@H](CC(N)=O)C(=O)N2CCC[C@H]2C(=O)N[C@@H](Cc2cnc[nH]2)C(=O)N[C@@H](CC(C)C)C(=O)N2C[C@H](O)C[C@@H]2C(=O)N[C@@H](Cc2c[nH]c3ccccc23)C(=O)N[C@@H](CO)C(=O)N[C@@H](Cc2c[nH]c3ccccc23)C(=O)N1C (stereo partly drawn) [Example 9003]	0.385 to 6.74	0.158 to 4.71	–
CCCC[C@H]1C(=O)N(C)[C@@H](CCCC)C(=O)N[C@@H](CCCNC(=N)N)C(=O)NC(C(=O)N[C@@H](CO)C(N)=O)CSCC(=O)N[C@@H](Cc2ccc(O)cc2)C(=O)N(C)[C@@H](C)C(=O)N[C@@H](CC(N)=O)C(=O)N2CCC[C@H]2C(=O)N[C@@H](Cc2cnc[nH]2)C(=O)N[C@@H](CO)C(=O)N2C[C@H](O)C[C@H]2C(=O)N[C@@H](Cc2c[nH]c3ccccc23)C(=O)N[C@@H](CO)C(=O)N[C@@H](Cc2c[nH]c3ccccc23)C(=O)N1C (stereo partly drawn) [Example 9079] ({CH2CO}-Y[NMeA]NPHS[Hyp]WSW[NMeNle][NMeNle]R[ξC]S-NH2; thioether N-14)	0.385 to 6.74	4.78 to 72.9	–
CCCC[C@H]1C(=O)N(C)[C@@H](CCCC)C(=O)N[C@@H](CN)C(=O)N[C@H](C(=O)NCC(N)=O)CSCC(=O)N[C@@H](Cc2ccc(O)cc2)C(=O)N(C)[C@@H](C)C(=O)N[C@@H](CC(N)=O)C(=O)N2CCC[C@H]2C(=O)N[C@@H](CN)C(=O)N[C@@H](CCC(N)=O)C(=O)N2C[C@H](O)C[C@H]2C(=O)N[C@@H](Cc2c[nH]c3ccccc23)C(=O)N[C@@H](CCN)C(=O)N[C@@H](Cc2csc3ccccc23)C(=O)N1C [Example 1225] ({CH2CO}-Y[NMeA]NP[Dap]Q[Hyp]W[Dab][Bta][NMeNle][NMeNle][Dap]CG-NH2; thioether N-14)	0.385 to 6.74	–	0.158 to 4.71
